Assay results as given in ChEMBL document CHEMBL4507292 (2021).

Assays:
[1] = (§1) Protein Serine/Threonine Kinase, PKA, Non-Selective Eurofins-Panlabs enzyme assay; type: protein-complex assay, Bos taurus; parameters: substrate with concentration 370 µg/mL Histone Type III-S, incubation time 15 min, incubation temperature 25 °C
Bos taurus [2] = organism: Bos taurus; test: as §1; type: protein-complex assay; parameters: substrate with concentration 370 µg/mL Histone Type III-S, incubation time 15 min, incubation temperature 25 °C
[3] = target: voltage-gated sodium channel, site 2 (Rattus norvegicus, UniProt F1LQQ7+O08562+O88420+O88457+P04774+P04775+P08104+P15389+P15390+Q62968); test: Inhibition of Sodium Channel, Site 2 at 10 µM in the Eurofins-Panlabs radioligand binding assay (Eurofins_assay_279510); type: protein assay; parameters: ligand concentration 5 nM, non-specific ligand with concentration 100 µM Veratridine, incubation time 60 min, incubation temperature 37 °C; conditions: male, Wistar, rat whole brain (except cerebellum) membranes, probe [3H] Batrachotoxinin, 5 nM, compound concentration 10 uM
Rattus norvegicus [4] = organism: Rattus norvegicus; test: Serotonin (5-Hydroxytryptamine) 5-HT1, Non-Selective Eurofins-Panlabs radioligand binding assay; type: protein assay; conditions: concentration not given here
[5] = target: Protein kinase C alpha type (Homo sapiens) (UniProt P17252); test: Inhibition of Protein Serine/Threonine Kinase, PRKCA (PKCα) at 10 µM in the Eurofins-Panlabs enzyme assay (Eurofins_assay_180010); parameters: substrate with concentration Histone, incubation time 10 min, incubation temperature 25 °C; conditions: Compound concentration […]
[6] = target: Melanocortin receptor 4 (Homo sapiens) (UniProt P32245); test: Inhibition of Melanocortin MC4 at 10 µM in the Eurofins-Panlabs radioligand binding assay (Eurofins_assay_251350); parameters: ligand concentration 0.02 nM; conditions: Compound concentration 10.0 uM
[7] = Protein Tyrosine Kinase, pp60 c-SRC Eurofins-Panlabs enzyme assay
[8] = target: Histamine H1 receptor (Homo sapiens) (UniProt P35367); conditions: Compound concentration 10.0 uM
[9] = target: T1, Alpha-1D adrenergic receptor (Homo sapiens) (UniProt P25100); test: Inhibition of Adrenergic alpha1D at 10 µM in the Eurofins-Panlabs radioligand binding assay (Eurofins_assay_203400); conditions: Compound concentration 10.0 uM
T1 sequence (whole entry): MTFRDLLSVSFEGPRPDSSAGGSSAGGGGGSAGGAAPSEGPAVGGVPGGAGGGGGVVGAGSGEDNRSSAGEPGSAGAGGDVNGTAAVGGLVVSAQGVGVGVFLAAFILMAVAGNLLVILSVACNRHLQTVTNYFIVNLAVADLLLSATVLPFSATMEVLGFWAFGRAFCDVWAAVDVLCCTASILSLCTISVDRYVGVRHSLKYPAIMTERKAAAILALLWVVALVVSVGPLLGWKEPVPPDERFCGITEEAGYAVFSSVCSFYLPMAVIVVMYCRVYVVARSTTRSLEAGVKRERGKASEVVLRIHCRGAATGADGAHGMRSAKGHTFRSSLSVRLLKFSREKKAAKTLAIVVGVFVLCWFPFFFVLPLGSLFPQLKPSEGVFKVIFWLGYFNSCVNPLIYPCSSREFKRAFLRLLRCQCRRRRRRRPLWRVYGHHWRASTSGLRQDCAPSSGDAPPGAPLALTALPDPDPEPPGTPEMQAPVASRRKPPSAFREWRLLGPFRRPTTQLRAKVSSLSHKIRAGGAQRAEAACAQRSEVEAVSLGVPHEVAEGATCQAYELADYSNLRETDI

[10] = target: T2, Alpha-2B adrenergic receptor (Homo sapiens) (UniProt P18089); conditions: Compound concentration 10.0 uM
T2 sequence (whole entry): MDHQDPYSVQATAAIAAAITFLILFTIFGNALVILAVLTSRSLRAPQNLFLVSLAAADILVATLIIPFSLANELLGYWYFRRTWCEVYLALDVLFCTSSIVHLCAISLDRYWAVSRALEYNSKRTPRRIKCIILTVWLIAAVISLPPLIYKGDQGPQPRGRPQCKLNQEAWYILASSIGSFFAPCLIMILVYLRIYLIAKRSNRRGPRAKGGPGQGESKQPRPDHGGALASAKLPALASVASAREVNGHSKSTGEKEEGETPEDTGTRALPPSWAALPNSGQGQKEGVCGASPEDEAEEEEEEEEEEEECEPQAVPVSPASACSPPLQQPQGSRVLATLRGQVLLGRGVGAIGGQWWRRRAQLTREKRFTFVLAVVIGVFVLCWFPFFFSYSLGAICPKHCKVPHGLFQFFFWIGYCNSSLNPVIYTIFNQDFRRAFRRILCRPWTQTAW

[11] = target: Beta-1 adrenergic receptor (Homo sapiens) (UniProt P08588); conditions: Compound concentration 10.0 uM
[12] = target: Glucocorticoid receptor (Homo sapiens) (UniProt P04150); test: Glucocorticoid Eurofins-Panlabs radioligand binding assay; conditions: Compound concentration 10.0 uM
[13] = Inhibition of Atrial Natriuretic Factor (ANF) at 10 µM in the Eurofins-Panlabs radioligand binding assay (Eurofins_assay_211000); conditions: Cavia porcellus
[14] = target: Neuropeptide Y receptor type 1 (Homo sapiens) (UniProt P25929); test: Inhibition of Neuropeptide Y Y1 at 10 µM in the Eurofins-Panlabs radioligand binding assay (Eurofins_assay_257010)
[15] = target: Glutamate NMDA receptor (Rattus norvegicus) (UniProt P35439+Q00959+Q00960+Q00961+Q62645+Q8VHN2+Q9R1M7); conditions: Compound concentration 10.0 uM
Rattus norvegicus [16] = organism: Rattus norvegicus; test: Adrenergic α2, Non-selective Eurofins-Panlabs radioligand binding assay; type: protein assay; conditions: Compound concentration 10.0 uM
Rattus norvegicus [17] = organism: Rattus norvegicus; conditions: Compound concentration 10.0 uM
[18] = (§2) Phosphodiesterase PDE6 Eurofins-Panlabs enzyme assay; parameters: species or system Bos taurus; substrate with concentration [3H] cGMP + cGMP, incubation time 20 min, incubation temperature 25 °C
Bos taurus [19] = organism: Bos taurus; test: as §2; parameters: substrate with concentration [3H] cGMP + cGMP, incubation time 20 min, incubation temperature 25 °C
[20] = target: Gamma-aminobutyric acid type B receptor subunit 1 (Homo sapiens) (UniProt Q9UBS5); conditions: Rattus norvegicus; Compound concentration 10.0 uM
[21] = target: Polyunsaturated fatty acid lipoxygenase ALOX12 (Homo sapiens) (UniProt P18054); test: Lipoxygenase 12-LO Eurofins-Panlabs enzyme assay; parameters: substrate with concentration; conditions: Compound concentration 10.0 uM
[22] = target: Interstitial collagenase (Homo sapiens) (UniProt P03956); test: Inhibition of Peptidase, Matrix Metalloproteinase-1 (MMP-1) at 10 µM in the Eurofins-Panlabs enzyme assay (Eurofins_assay_114110); conditions: Compound concentration 10.0 uM
[23] = target: Voltage-dependent N-type calcium channel subunit alpha-1B (Homo sapiens) (UniProt Q00975); test: Inhibition of Calcium Channel N-Type at 10 µM in the Eurofins-Panlabs radioligand binding assay (Eurofins_assay_216000); conditions: Rattus norvegicus; Compound concentration 10.0 uM
Homo sapiens = organism: Homo sapiens; test: Inhibition of Nicotinic Acetylcholine at compound concentration of 10.0 uM in the Eurofins-Panlabs radioligand binding assay (Eurofins_assay_258590); type: protein-complex assay; conditions: Compound concentration 10.0 uM
[24] = target: hERG (KCNH2) potassium channel (Homo sapiens, UniProt Q12809); test: Inhibition of Potassium Channel hERG at 10 µM in the Eurofins-Panlabs radioligand binding assay (Eurofins_assay_265900); parameters: ligand concentration 1.5 nM, non-specific ligand with concentration Astemizole, incubation time 60 min, incubation temperature 25 °C; conditions: HEK-293 cells expressing human recombinant hERG, probe [3H] Astemizole, 1.5 nM, compound concentration 10 uM
Caspase-7 (Homo sapiens) = Caspase-7 (Homo sapiens) (UniProt P55210); test: Peptidase, CASP7 (Caspase 7) Eurofins-Panlabs enzyme assay; conditions: Compound concentration 10.0 uM
[25] = target: Somatostatin receptor type 2 (Homo sapiens) (UniProt P30874); test: Somatostatin sst2 Eurofins-Panlabs radioligand binding assay; parameters: ligand concentration 0.1 nM; conditions: Compound concentration 10.0 uM
[26] = Compound concentration 100.0 uM

Sequence of Melanocortin receptor 4 (Homo sapiens) (P32245 whole entry): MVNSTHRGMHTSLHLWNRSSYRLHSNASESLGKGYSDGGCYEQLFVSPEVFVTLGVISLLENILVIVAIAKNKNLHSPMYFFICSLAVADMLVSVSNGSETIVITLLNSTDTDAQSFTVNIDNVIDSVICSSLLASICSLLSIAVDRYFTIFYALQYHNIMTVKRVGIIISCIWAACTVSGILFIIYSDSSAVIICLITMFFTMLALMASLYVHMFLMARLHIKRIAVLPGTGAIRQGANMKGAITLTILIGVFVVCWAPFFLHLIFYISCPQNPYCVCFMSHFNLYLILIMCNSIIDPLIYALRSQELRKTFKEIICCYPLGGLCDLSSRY
Sequence of Histamine H1 receptor (Homo sapiens) (P35367 whole entry): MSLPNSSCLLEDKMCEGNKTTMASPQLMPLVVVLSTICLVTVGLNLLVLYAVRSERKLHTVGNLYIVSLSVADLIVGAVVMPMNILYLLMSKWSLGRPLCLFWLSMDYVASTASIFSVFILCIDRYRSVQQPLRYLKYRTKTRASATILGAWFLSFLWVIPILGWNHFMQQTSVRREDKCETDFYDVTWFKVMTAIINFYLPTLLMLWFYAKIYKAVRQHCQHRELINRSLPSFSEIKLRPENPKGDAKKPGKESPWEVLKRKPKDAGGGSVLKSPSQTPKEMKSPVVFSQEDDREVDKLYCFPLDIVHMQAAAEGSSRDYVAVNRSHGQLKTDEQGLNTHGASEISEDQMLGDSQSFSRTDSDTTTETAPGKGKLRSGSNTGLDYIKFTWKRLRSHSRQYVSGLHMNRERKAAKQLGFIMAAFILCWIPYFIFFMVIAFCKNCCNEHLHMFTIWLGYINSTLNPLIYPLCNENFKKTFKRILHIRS
Sequence of Caspase-7 (Homo sapiens) (P55210 24-198 limits assumed): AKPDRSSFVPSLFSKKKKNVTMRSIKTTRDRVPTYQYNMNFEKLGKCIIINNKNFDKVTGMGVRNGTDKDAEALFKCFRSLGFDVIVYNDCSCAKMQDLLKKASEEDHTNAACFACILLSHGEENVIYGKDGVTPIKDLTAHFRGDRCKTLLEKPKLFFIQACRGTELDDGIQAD
Sequence of Caspase-7 (Homo sapiens) (P55210 207-303 limits assumed): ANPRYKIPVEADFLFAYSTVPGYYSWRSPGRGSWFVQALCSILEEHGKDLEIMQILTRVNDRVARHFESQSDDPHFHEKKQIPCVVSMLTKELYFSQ
Sequence of Voltage-dependent N-type calcium channel subunit alpha-1B (Homo sapiens) (Q00975 whole entry, looked up): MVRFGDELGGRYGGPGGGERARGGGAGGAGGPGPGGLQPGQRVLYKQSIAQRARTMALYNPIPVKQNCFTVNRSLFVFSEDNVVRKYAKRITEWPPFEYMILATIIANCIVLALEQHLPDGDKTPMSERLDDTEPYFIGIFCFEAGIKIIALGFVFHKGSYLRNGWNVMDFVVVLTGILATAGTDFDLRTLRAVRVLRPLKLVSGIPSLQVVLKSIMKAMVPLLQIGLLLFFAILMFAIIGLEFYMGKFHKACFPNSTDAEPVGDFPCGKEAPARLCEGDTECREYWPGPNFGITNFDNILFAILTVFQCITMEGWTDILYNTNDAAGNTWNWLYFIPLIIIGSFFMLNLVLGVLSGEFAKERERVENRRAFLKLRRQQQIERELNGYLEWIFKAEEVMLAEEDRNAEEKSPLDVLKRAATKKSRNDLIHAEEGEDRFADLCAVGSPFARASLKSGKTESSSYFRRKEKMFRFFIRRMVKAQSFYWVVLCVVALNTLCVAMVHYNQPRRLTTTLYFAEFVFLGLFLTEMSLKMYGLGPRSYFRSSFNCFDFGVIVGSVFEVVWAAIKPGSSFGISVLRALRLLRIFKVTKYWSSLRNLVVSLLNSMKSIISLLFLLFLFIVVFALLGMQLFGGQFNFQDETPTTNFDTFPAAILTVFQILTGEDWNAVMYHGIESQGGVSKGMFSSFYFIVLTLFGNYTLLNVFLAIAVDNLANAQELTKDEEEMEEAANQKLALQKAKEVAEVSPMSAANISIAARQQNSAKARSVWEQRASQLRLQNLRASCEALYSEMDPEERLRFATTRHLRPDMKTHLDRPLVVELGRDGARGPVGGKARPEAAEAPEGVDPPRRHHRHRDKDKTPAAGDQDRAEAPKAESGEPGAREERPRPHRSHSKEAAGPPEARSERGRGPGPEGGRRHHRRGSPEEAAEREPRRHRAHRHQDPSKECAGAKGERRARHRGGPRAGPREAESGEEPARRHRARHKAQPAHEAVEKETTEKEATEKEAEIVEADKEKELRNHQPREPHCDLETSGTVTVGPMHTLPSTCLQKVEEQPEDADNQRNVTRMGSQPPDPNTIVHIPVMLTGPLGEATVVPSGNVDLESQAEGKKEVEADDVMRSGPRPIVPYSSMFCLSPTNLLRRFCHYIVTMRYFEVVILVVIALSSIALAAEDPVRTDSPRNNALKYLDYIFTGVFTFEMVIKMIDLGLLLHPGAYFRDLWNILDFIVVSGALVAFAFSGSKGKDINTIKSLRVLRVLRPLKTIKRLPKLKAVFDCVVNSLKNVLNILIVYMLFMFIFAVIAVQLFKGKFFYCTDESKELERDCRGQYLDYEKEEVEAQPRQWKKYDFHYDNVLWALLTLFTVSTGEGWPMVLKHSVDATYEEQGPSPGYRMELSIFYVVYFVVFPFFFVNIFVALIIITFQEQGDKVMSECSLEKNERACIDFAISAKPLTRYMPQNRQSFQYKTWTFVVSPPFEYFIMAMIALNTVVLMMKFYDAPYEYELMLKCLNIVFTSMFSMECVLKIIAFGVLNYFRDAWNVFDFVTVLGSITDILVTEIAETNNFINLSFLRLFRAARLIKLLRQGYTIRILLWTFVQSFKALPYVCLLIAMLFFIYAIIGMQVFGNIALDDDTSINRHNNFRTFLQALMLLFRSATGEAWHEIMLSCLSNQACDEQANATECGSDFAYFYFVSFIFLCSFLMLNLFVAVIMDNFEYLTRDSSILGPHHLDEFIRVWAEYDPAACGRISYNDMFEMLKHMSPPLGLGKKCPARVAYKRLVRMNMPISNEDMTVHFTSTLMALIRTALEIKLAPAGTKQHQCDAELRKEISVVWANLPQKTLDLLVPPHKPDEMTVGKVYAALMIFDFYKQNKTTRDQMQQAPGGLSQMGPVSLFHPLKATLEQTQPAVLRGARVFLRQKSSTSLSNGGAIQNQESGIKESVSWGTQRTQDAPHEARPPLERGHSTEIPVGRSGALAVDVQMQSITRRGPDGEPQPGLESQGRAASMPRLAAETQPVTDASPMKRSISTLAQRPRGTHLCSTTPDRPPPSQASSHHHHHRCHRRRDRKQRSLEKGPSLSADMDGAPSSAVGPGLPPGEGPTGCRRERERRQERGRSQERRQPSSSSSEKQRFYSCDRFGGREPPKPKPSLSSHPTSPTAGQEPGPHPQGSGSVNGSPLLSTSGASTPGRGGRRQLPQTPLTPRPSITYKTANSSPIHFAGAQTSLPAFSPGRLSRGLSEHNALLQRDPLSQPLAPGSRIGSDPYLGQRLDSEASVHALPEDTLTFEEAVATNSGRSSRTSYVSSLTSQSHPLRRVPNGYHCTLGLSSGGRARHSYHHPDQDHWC
Sequence of hERG (KCNH2) potassium channel (Q12809 whole entry): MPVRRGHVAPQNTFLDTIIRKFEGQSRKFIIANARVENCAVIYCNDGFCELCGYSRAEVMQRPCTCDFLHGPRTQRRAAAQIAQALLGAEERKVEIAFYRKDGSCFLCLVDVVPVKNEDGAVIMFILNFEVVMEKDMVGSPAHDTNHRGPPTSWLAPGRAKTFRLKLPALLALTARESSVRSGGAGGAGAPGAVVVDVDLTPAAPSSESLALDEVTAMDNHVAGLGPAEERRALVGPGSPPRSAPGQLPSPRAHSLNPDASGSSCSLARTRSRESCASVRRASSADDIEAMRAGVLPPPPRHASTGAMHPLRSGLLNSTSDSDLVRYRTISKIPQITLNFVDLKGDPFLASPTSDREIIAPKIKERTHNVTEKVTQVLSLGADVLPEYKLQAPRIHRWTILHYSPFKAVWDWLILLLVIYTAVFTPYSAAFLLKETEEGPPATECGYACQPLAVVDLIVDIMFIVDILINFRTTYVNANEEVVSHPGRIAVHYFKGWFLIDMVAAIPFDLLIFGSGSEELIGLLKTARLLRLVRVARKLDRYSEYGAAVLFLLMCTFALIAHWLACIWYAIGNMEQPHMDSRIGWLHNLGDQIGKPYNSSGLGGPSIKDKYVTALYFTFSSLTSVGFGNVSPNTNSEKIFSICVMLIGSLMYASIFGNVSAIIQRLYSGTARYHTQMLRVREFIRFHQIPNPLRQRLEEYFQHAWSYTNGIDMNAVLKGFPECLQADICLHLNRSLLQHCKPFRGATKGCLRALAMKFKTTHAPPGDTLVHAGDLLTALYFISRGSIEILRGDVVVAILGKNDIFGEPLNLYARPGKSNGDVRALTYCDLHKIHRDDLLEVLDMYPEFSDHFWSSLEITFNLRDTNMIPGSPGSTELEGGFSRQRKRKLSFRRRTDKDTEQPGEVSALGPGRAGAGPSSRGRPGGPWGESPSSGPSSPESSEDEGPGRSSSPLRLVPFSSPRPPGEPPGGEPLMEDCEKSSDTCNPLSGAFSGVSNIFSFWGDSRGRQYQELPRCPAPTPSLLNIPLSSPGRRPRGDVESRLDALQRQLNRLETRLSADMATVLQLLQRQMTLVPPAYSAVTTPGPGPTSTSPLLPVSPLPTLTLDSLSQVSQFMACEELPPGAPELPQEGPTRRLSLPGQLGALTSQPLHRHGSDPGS
Sequence of Beta-1 adrenergic receptor (Homo sapiens) (P08588 whole entry, looked up): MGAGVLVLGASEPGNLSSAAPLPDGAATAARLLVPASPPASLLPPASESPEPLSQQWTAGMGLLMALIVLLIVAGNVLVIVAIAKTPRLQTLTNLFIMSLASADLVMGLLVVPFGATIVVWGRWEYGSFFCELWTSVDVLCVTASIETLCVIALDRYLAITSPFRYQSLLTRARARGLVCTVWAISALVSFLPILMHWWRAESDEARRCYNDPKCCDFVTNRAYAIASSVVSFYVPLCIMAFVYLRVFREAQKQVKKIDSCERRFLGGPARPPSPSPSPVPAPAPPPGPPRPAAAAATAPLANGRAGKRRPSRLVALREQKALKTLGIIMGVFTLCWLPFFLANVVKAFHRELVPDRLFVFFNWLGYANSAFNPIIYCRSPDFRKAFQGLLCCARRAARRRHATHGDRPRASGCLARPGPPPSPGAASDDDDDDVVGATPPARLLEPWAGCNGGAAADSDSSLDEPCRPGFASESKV

Structure (SMILES): O=C(O)c1cc(-c2ccc(C3CCNCC3)cc2)c2ccc(-c3ccc(C(F)(F)F)cc3)cc2c1 [PPTN]
- IC50 [1]: 11.4 µM
- inhibition (Bos taurus [2]; Compound concentration 0.1 uM): -10%
- inhibition (Bos taurus [2]; Compound concentration 1.0 uM): 9%
- inhibition (Bos taurus [2]; Compound concentration 10.0 uM): 46%
- inhibition (Bos taurus [2]; [26]): 91%
- inhibition at 60 min, 10 µM [3]: -10% (not active)
- inhibition (Rattus norvegicus [4]): 5%
- inhibition [5]: 29%
- inhibition [6]: 28%
- IC50 [7]: 9.02 µM
- inhibition [8]: -1%
- inhibition [9]: -5%
- inhibition [10]: -1%
- inhibition [11]: 3%
- inhibition [12]: -9%
- inhibition at 10 µM [13]: -1% (not active)
- inhibition [14]: 2%
- inhibition [15]: -4%
- inhibition (Rattus norvegicus [16]): -1%
- inhibition (Rattus norvegicus [17]): 3%
- IC50 [18]: 32.9 µM
- inhibition (Bos taurus [19]; Compound concentration 0.1 uM): 2%
- inhibition (Bos taurus [19]; Compound concentration 1.0 uM): 4%
- inhibition (Bos taurus [19]; Compound concentration 10.0 uM): 35%
- inhibition (Bos taurus [19]; [26]): 66%
- inhibition [20]: 3%
- inhibition [21]: 30%
- inhibition [22]: -10%
- inhibition [23]: 11%
- inhibition (Homo sapiens): 0%
- inhibition at 60 min, 10 µM [24]: -6% (not active)
- inhibition (Caspase-7 (Homo sapiens)): -6%
- inhibition [25]: 29%
